Tests used:
[1] = test system: Botrytis cinerea; experiment: Botrytis cinerea (gray mold) in vitro test, radial growth on Potato Dextrose Agar; format: cell-based; conditions: 168 h, 300 ppm, seven days, 22° C., read-out: % (control) compared to the untreated check (radial growth)
[2] = test system: Colletotrichum capsici; experiment: Colletotrichum capsici (anthracnose) in vitro test, radial growth on Potato Dextrose Agar; format: cell-based; conditions: Colletotrichum truncatum, 168 h; 300 ppm; seven days, 25° C.; read-out: % control compared to the untreated check (radial growth)
[3] = test system: Fusarium culmorum; experiment: Fusarium culmorum (foot rot of cereals) in vitro test, radial growth on Potato Dextrose Agar; format: cell-based; conditions: Fusarium culmorum, 168 h, read-out: % control compared to the untreated check (radial growth)
[4] = test system: Pyricularia oryzae; experiment: whole plant or invertebrate; format: in vivo; conditions: 24 h, read-out: Efficacy (% control), disease severity vs untreated check
[5] = test system: Alternaria solani; experiment: Alternaria solani (early blight of tomato/potato) in vitro test, radial growth on Potato Dextrose Agar; format: cell-based; conditions: 168 h, 300 ppm, seven days, 25° C., read-out: % control compared to the untreated check (radial growth)
[6] = test system: Pyricularia oryzae; experiment: microbe, parasite or virus in culture; format: cell-based; conditions: 168 h, read-out: % control compared to the untreated check (radial growth)
[7] = test system: Rhizoctonia solani; experiment: Rhizoctonia solani (rice sheath blight/potato black scurf) in vitro test, radial growth on Potato Dextrose Agar; format: cell-based; conditions: 168 h, 300 ppm, seven days, 25° C., read-out: % control compared to the untreated check (radial growth)
[8] = test system: Septoria lycopersici; experiment: Septoria lycopersici (leaf spot of tomato) in vitro test, radial growth on Potato Dextrose Agar; format: cell-based; conditions: 168 h, seven days, 25° C., read-out: % control compared to the untreated check (radial growth)
[9] = test system: Fusarium culmorum; experiment: Greenhouse Fusarium culmorum test in wheat, preventive; format: in vivo; conditions: 24 h, read-out: Efficacy (% control), disease severity vs untreated check
Summary of the method: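 Young greenhouse wheat sprayed preventively at stated rates (compounds in 2% DMSO/acetone, diluted in water), inoculated one day later with 2×10^6 Fusarium culmorum spores in 2% malt, held at 24 °C, 80-90% RH. Disease severity (0-100%) rated 3, 7, 10 and 15 days after application; % control versus untreated, phytotoxicity also recorded.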

[10] = test system: Botrytis cinera; experiment: Greenhouse Botrytis cinera test in tomato, preventive; format: in vivo; conditions: 24 h, plants sprayed one day before inoculation, read-out: Efficacy (% control), disease severity vs untreated check

Structure (SMILES) | inhibition of growth at 300 ppm [1] [%] | inhibition of growth at 300 ppm [2] [%] | inhibition of growth at 300 ppm [3] [%] | pest or weed control at 500 ppm [4] [%] | inhibition of growth at 300 ppm [5] [%] | inhibition of growth at 300 ppm [6] [%] | inhibition of growth at 300 ppm [7] [%] | inhibition of growth at 300 ppm [8] [%] | pest or weed control at 500 ppm [9] [%] | pest or weed control at 500 ppm [10] [%]
CCN(C)C=Nc1cc(C)c(Cc2cc(C)ccc2C)cc1C [Compound 26, N′-(4-(2,5-dimethylbenzyl)-2,5-dimethylphenyl)-N-ethyl-N-methylformimidamide] | > 80 | > 80 | 75 | 70 to 100 | > 75 | > 75 | > 80 | > 70 |  | 
CCN(C)C=Nc1cc(Cl)c(Cc2ccccc2F)cc1Cl [Compound 149, N′-(2,5-dichloro-4-(2-fluorobenzyl)phenyl)-N-ethyl-N-methylformimidamide] | > 80 |  |  | 70 to 100 | > 75 | > 75 |  |  | 70 to 100 | 
CCN(C)C=Nc1cc(C)c(Cc2cccc(Cl)c2Cl)cc1C [Compound 133, N′-(4-(2,3-dichlorobenzyl)-2,5-dimethylphenyl)-N-ethyl-N-methylformimidamide] | > 80 | > 80 |  | 70 to 100 | > 75 | > 75 | > 80 | > 70 |  | 70 to 100
CCN(C)C=Nc1cc(C)c(Cc2ccccc2C(F)(F)F)cc1Cl [Compound 103, N′-(2-chloro-5-methyl-4-(2-(trifluoromethyl)benzyl)phenyl)-N-ethyl-N-methylformimidamide] | > 80 | > 80 |  | 70 to 100 | > 75 | > 75 | > 80 |  |  | 70 to 100
CCN(C)C=Nc1cc(C)c(Cc2ccc(Cl)c(C)c2)cc1Cl [Compound 120, N′-(2-chloro-4-(4-chloro-3-methylbenzyl)-5-methylphenyl)-N-ethyl-N-methylformimidamide] | > 80 | > 80 | 75 | 70 to 100 | > 75 | > 75 | > 80 |  |  | 
CCN(C)C=Nc1cc(Cl)c(Cc2cccc(F)c2)cc1Cl [Compound 148, N′-(2,5-dichloro-4-(3-fluorobenzyl)phenyl)-N-ethyl-N-methylformimidamide] |  |  |  | 70 to 100 | > 75 | > 75 |  |  |  | 
CCN(C)C=Nc1cc(Cl)c(Cc2cccc(C(F)(F)F)c2)cc1Cl [Compound 183, N′-(2,5-dichloro-4-(3-(trifluoromethyl)benzyl)phenyl)-N-ethyl-N-methylformimidamide] | > 80 |  |  | 70 to 100 |  | > 75 | > 80 |  | 70 to 100 | 
CCN(C)C=Nc1cc(C)c(Cc2cccc(OC(F)(F)F)c2)cc1C [Compound 51, N′-(2,5-dimethyl-4-(3-(trifluoromethoxy)benzyl)phenyl)-N-ethyl-N-methylformimidamide] | > 80 | > 80 | 75 | 70 to 100 | > 75 | > 75 | > 80 | > 70 |  | 
CCN(C)C=Nc1cc(C)c(Cc2cccc(C)c2C)cc1C [Compound 112, N′-(4-(2,3-dimethylbenzyl)-2,5-dimethylphenyl)-N-ethyl-N-methylformimidamide] |  | > 80 | 75 | 70 to 100 | > 75 | > 75 | > 80 | > 70 |  | 

From patent publication US11155517B2, “4-substituted phenylamine derivatives and their use to protect crops by fighting undesired phytopathogenic micoorganisms” (PI INDUSTRIES LTD., priority 2016, dated 2021)
